One data set deals with T1, Beta3 (Homo sapiens, UniProt P13945).
T1 construct: NIMH PDSP
As to the kind of experiment: NIMH PDSP receptor binding, Beta3. Conditions: [125I]Iodopindolol.

Another data set concerns the target T2, M4 (Homo sapiens, UniProt P08173).
T2 construct: purchased NIMH PDSP
As to the kind of experiment: biochemical. Conditions: read-out: % Inhibition of Binding at 10 µM D-473.

The next data set has as its target hDAT (Homo sapiens, UniProt Q01959). The data set can be described thus: Inhibition of [3H]DA uptake by cloned human DAT in HEK293 cells. As to conditions: nM, HEK293 cells expressing hDAT, average±S.E.M., 3 to 10 determinations.
The target of a further data set is T3, δ-opioid (Homo sapiens, UniProt P41143).
T3 construct: purchased NIMH PDSP
The data set can be described thus: NIMH PDSP receptor binding, δ-opioid. As to conditions: [3H]DADLE, read-out: % Inhibition of Binding at 10 µM D-473.

The subject of data set [1] is locomotor activity (horizontal activity). As to the kind of experiment: Locomotor activity in rats. The class given is in vivo. As to conditions: rat; 25 mg/kg oral; 2 h post administration; vs vehicle. The protocol: Sprague Dawley Rats were tested at 25 mg/kg oral dose of D-473 to monitor changes in any locomotor activity in acrylic Auto-Track/Opto-Varimex-4 System (Columbus Instrument; Columbus, Ohio). The purpose was to evaluate locomotor activity of the same doses of drug that were used in the forced swim test. Rats were acclimated in the test chambers for 1 h prior to oral administration of D-473. Locomotor activity of the drug was measured for a total of two hour post administration of the drug which corresponded to the time of measurement in the forced swimming experiment. GBR 12909 was studied as a control drug known to stimulate and was administered i.p. as in published studies; vehicle was orally administered.

A further data set addresses T4, Alpha1A (Homo sapiens, UniProt P35348).
T4 construct: purchased NIMH PDSP
As to the kind of experiment: NIMH PDSP receptor binding, Alpha1A. As to conditions: [3H]Prazosin, read-out: % Inhibition of Binding at 10 µM D-473.

A further data set addresses T5, Alpha2B (Homo sapiens, UniProt P18089).
T5 construct: purchased NIMH PDSP
The data set can be described thus: NIMH PDSP receptor binding, Alpha2B. Conditions: [3H]Clonidine, read-out: % Inhibition of Binding at 10 µM D-473.

For the next data set, the target named is T6, 5HT1d (Homo sapiens, UniProt P28221).
T6 construct: purchased NIMH PDSP
The data set can be described thus: NIMH PDSP receptor binding, 5HT1d. Conditions: [3H]GR-125743, read-out: % Inhibition of Binding at 10 µM D-473.

The target in another data set is T7, Beta1 (Homo sapiens, UniProt P08588).
T7 construct: purchased NIMH PDSP
The data set can be described thus: NIMH PDSP receptor binding, Beta1. As to conditions: [125I]Iodopindolol, read-out: % Inhibition of Binding at 10 µM D-473.

In another data set the test system is PBR. The data set can be described thus: NIMH PDSP receptor binding, PBR.
Data set [2] relates to CNS GPCR receptors and ion channels. The data set can be described thus: CNS broad receptors screening, summary statements by receptor family. It is filed as binding.
The test system of the next data set is GABA A. As to the kind of experiment: NIMH PDSP receptor binding, GABA A. As to conditions: [3H]Muscimol.
The nature of data set [3]: Brain uptake after oral administration in rats. It is filed as in vivo. As to conditions: rat, 25 mg/kg PO. Here is the method: Sample preparation: Following oral administration of 25 mg/kg of D-473 and D-142 in male Sprague Dawley rats, the blood samples were collected at different time points over a period of 8 h for analysis. Concentrations of D-473 and D-142 in plasma were quantitated using a set of calibration standards prepared in blank matrix that were processed in parallel. Plasma concentration evaluation was carried out by the CRO, Absorption System, PA. Additionally, brain uptake studies of D-473 were carried out at three different time points (2, 4 and 6 h) following oral administration of 25 mg/kg D-473. Concentrations of D-473 in rat brain were quantitated using a set of calibration standards which were prepared in blank brain homogenate matrix on the day of analysis. The standard samples (5, 10, 25, 100, 500, 1000, and 2000 ng/mL) for calibration curve were prepared by spiking 45 µL of blank rat plasma with 5 µL of appropriate working dilution of D-473 in acetonitrile. The bioanalytical sample preparation for brain and plasma analysis followed by quantification of test compounds entailed the addition of 250 µL acetonitrile to every 50 µL of standard and analyte samples to precipitate tissue plasma proteins and tissue macromolecules. These mixtures were then vortexed for 15 min at 1400 rpm. The suspensions were then clarified by centrifugation (18000 g, 10 min at 4°C), and each 150 µL of the resulting supernatant was mixed well with 50 µL 0.1% formic acid in 50/50 (v/v) ACN/water solution for about 10 sec. The mixtures were again centrifuged (18000 g, 10 min at 4°C) before 100 µL of clear supernatant were transferred to auto sampler vials for LC-MS/MS analysis.
The analysis of brain samples was performed using Waters (Milford, MA, USA) Acquity UPLC instrument with a triple quadrupole (TQD) MS analyzer. The LC-MS/MS detection was performed using a positive Multiple Reaction Monitoring (MRM) method by monitoring the ion transition of D-473 from m/z 440.39 → 121.03. The MS/MS conditions include capillary voltage, 2.92 kV, cone voltage, 26.0 V; source temperature, 150°C; desolvation temperature, 350°C; desolvation gas flow, 500 L/hr; and collision energy, 33 eV. The MS control and data acquisition were collected using the Waters MassLynx software v4.1. Chromatographic conditions were achieved using a reverse phase C-18 ethylene bridged hybrid column (BEH C18) (2.1×100 mm, 1.7 µM). 5 µL of sample solutions were injected and samples were eluted using 0.1% formic acid in water (solvent A) and 0.1% formic acid in ACN (solvent B) mixture with a flow rate of 0.2 mL/min. Gradient elution of the mobile phase was 90% A to 5% A from 0 to 1 min, 5% A, 95% B from 1 to 3 min, and 5% A to 90% A from 3 to 5 min.

The next data set deals with T8, Beta2 (Homo sapiens, UniProt P07550).
T8 construct: purchased NIMH PDSP
As to the kind of experiment: NIMH PDSP receptor binding, Beta2. Conditions: [125I]Iodopindolol, read-out: % Inhibition of Binding at 10 µM D-473.

From article PMC4245125, “Pharmacological and Behavioral Characterization of D-473, an Orally Active Triple Reuptake Inhibitor Targeting Dopamine, Serotonin and Norepinephrine Transporters” (PLoS ONE, 2014) come the findings set out here.

Molecules are shown by their SMILES. Values joined by “and” are separate entries in the source; they are usually repeats but may differ in a detail not shown here. Equal entries are not always repeated.

T1 sequence (P13945 whole entry): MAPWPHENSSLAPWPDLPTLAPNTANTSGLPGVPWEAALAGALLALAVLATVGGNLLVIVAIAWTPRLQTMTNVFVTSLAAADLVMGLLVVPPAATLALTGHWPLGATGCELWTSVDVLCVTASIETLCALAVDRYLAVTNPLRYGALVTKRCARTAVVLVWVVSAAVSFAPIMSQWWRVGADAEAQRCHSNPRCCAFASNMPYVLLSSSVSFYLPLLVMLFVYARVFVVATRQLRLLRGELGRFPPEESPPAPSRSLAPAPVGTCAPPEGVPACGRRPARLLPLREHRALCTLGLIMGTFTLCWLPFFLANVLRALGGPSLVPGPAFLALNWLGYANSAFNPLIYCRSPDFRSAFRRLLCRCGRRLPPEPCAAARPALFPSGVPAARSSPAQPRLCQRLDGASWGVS
Chain of hDAT (Q01959 whole entry): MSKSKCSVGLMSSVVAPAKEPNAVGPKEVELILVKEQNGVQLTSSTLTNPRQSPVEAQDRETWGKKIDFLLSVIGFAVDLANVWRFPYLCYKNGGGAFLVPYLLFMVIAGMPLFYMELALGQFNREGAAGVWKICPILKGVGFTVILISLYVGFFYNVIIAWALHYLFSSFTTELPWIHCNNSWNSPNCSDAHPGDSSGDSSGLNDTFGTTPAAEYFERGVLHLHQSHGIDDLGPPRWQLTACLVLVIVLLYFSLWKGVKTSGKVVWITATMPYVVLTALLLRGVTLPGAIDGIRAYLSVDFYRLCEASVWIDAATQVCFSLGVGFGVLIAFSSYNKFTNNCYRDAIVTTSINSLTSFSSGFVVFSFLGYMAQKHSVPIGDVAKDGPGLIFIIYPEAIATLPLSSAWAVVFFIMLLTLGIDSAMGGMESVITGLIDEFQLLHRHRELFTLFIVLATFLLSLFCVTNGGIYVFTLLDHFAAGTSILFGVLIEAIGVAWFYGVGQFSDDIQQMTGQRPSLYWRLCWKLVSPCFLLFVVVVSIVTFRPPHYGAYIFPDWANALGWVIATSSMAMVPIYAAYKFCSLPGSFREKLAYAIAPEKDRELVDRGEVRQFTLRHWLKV
T4 sequence (P35348 whole entry): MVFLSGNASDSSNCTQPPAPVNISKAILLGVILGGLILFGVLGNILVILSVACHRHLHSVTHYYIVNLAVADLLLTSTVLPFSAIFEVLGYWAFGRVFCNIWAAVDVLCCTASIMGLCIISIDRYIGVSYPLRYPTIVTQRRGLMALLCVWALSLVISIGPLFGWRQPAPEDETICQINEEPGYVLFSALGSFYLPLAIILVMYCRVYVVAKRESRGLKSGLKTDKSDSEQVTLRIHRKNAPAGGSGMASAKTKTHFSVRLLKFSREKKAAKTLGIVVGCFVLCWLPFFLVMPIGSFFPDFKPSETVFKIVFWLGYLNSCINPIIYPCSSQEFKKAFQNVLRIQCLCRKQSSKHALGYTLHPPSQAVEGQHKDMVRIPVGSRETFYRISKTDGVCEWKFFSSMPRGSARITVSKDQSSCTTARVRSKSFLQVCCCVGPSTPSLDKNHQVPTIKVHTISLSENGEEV
T7 sequence (P08588 whole entry): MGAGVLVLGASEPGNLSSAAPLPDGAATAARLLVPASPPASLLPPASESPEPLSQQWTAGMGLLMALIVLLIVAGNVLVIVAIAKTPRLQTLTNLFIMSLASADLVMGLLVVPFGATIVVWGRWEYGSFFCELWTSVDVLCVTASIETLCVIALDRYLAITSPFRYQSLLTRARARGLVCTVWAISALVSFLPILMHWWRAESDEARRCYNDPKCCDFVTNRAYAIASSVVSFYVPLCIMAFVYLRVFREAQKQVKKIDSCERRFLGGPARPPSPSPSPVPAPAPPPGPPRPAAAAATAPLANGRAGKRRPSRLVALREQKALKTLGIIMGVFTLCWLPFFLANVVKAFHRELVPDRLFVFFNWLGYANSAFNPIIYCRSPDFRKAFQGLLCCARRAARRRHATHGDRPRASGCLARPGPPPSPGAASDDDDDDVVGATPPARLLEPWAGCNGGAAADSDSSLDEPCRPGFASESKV
T6 sequence (P28221 whole entry): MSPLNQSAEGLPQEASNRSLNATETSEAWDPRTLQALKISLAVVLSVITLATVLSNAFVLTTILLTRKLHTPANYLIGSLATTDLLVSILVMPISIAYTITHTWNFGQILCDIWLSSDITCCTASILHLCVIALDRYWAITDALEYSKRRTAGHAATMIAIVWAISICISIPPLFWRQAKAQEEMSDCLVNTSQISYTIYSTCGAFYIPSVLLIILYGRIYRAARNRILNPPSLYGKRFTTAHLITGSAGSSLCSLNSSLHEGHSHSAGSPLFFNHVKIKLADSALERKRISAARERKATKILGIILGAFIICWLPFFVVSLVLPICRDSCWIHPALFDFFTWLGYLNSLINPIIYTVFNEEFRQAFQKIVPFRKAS
T8 sequence (P07550 whole entry): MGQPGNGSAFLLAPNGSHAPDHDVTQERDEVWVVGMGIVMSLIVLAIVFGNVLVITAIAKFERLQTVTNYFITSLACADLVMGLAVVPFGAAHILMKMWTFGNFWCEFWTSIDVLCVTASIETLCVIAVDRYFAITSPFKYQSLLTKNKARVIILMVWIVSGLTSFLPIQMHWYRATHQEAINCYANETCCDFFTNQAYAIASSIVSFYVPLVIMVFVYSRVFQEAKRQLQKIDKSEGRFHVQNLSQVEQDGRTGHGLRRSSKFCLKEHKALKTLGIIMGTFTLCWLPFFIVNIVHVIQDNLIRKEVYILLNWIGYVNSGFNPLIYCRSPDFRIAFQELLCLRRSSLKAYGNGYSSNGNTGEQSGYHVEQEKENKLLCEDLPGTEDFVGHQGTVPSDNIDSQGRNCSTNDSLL
T2 sequence (P08173 whole entry): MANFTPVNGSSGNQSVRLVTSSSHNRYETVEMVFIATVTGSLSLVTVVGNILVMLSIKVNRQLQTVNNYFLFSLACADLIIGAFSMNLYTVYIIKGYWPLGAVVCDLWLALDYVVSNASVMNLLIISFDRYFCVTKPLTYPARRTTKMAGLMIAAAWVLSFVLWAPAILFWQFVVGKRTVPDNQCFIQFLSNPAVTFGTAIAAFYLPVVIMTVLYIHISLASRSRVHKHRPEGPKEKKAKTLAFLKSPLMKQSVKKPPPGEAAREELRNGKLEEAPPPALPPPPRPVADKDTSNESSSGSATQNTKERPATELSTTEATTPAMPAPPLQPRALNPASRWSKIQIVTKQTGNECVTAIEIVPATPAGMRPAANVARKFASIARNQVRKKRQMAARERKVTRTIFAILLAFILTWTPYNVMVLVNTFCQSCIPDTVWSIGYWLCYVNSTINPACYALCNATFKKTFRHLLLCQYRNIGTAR
T5 sequence (P18089 whole entry): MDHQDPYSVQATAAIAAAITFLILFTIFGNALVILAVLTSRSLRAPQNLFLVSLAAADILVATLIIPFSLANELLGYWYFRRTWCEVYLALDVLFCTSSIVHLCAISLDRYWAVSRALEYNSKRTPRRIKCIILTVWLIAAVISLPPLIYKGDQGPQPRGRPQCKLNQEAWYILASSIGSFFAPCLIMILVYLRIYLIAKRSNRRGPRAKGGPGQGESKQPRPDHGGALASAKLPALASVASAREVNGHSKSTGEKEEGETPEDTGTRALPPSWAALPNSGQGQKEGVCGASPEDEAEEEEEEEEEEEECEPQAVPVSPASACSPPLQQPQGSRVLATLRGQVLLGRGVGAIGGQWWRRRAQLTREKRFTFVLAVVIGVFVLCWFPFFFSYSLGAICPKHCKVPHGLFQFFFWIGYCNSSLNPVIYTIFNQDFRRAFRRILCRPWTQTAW
T3 sequence (P41143 whole entry): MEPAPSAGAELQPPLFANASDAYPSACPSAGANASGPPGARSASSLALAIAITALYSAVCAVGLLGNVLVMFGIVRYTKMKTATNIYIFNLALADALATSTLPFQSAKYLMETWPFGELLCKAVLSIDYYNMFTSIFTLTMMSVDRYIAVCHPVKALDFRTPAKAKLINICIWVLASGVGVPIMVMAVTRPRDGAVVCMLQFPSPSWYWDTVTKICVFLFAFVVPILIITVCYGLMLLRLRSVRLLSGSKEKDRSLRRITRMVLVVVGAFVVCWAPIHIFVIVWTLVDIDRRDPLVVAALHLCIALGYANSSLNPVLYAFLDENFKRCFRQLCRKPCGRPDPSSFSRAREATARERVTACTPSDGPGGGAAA

For the molecule `COc1ccc(CN[C@@H]2CO[C@H](C(c3ccc(F)cc3)c3ccc(F)cc3)C[C@H]2O)cc1` [Compound D-473, (2S,4R,5R)-2-(bis(4-fluorophenyl)methyl)-5-((4-methoxybenzyl)amino)tetrahydro-2H-pyran-4-ol], the inhibition (in general, the drop in the measured response relative to a control, in per cent) at 10 µM on Beta3 (10 µM, read-out: % Inhibition of Binding at 10 µM D-473) was 61.2%; on M4, -16.7%; at δ-opioid, 42.7%; at Alpha1A, 23.6%; at Alpha2B, 25.4%; at 5HT1d, 39%. In addition, the inhibition at 10 µM on Beta1 is 24.6%; at Beta2 it was -4.4%. For the same molecule, the Ki – broadly, the equilibrium dissociation constant of an inhibitor or competing ligand from its target – was over 10000 nM at Beta3 (secondary assay, read-out: Ki for D-473); 70 nM and 70.4 nM on hDAT; over 10000 nM in [2] (dopamine and serotonin receptor subtypes other than D1, D5, 5HT2b, read-out: Ki at dopamine and serotonin receptor subtypes (generally)). Further, the “Locomotor activity (horizontal activity)” value in data set [1] is recorded as “statistically indistinguishable from vehicle”. Also, the “% Inhibition of Binding at 10 µM D-473” value amounted to 8.4% in the data set with PBR and 5.1% with GABA A. Moreover, in data set [2], the “Affinity for alpha adrenergic or beta adrenergic receptors subtypes” value is listed as “did not show any appreciable affinity”. For the same molecule, the “Affinity for muscarinic receptor subtypes” value in [2] is “Lack of any affinity”. In data set [2], the “Affinity for opioid receptors, calcium channel and GABA receptor” value is “did not show any affinity”. In addition, the Kp at 2 h in [3] (male, Sprague-Dawley, brain and plasma, 2 h, read-out: Brain/plasma ratio) was 0.76. In addition, the Kp at 4 h in data set [3] (male, Sprague-Dawley, brain and plasma, 4 h, read-out: Brain/plasma ratio) stood at 1.54. Also, the Kp at 6 h in data set [3] (male, Sprague-Dawley, brain and plasma, 6 h, read-out: Brain/plasma ratio) was found to be 1.22. Besides, the concentration at 2 h in data set [3] (male, Sprague-Dawley, brain, 2 h) amounted to 264 ng/mL. Further, the concentration at 4 h in data set [3] (male, Sprague-Dawley, brain, 4 h, read-out: Concentration in the brain (peak)) stood at 345 ng/mL. In data set [3] (6 h), the “Concentration in the brain” value is reported as “slightly lower than observed at 2 h”.
